Test results as given in PMC9756341 (Journal of the American Chemical Society, 2022).

Experiments:
KLK6 [1] = experiment: Enzyme kinetics to calculate KM, KLK6; format: biochemical, human; settings: fluorogenic substrate, KLK6 1.5 nM, 2% DMSO, room temperature, 30 min, Michaelis-Menten model, triplicates
Procedure: (§1) Reagents were obtained from VWR, Sigma Aldrich, Sartorius, Fluorochem, AGTC, Novabiochem, TCI, Alfa Aesar, Iris Biotech, Thermofisher and Bachem. […]
(§2) (Code 7449-SE) and KLK8 (Code 2025-SE) were obtained from BioTechne. KLK6 was obtained from the group of Aubry Miller (DKFZ) and KLK7 was obtained from the group of Judith Clements (QUT).
The manufacturer’s recommended buffers were used with uPA and tPA but not KLK8. The KLK6 assay buffer was as follows: 50 mM Tris 150 mM NaCl, 1 mM EDTA, 0.05% Tween20, pH 7.5. The KLK7/8 buffer was as follows: 100 mM Na2PO4, 0.01% Tween20, pH 8.5. Fluorescence measurements were measured using an Envision plate reader. Fluorescence data was processed using Graphpad Prism 8. […]
(§3) 2-chlorotrityl chloride resin. […]
(§4) 380nm/440nm. The data was analysed using Graphpad Prism 8. The initial slopes of each plot were calculated and presented in a bar chart, which represents the substrate specificity of the KLK. […]
(§5) Enzyme kinetics to calculate KM. Purified fluorogenic substrates were measured in triplicates. […]
(§6) temperature, fluorescence was read once every 30 s for 30 min from an Envision plate reader at excitation/emission wavelengths of 380nm/440nm. The data was analysed with Graphpad Prism 8, using the Michaelis-Menten model.
(§7) Enzyme kinetics to calculate kobs/I. All ABPs and inhibitors were measured in triplicates. […]

KLK6 [2] = experiment: Enzyme kinetics to calculate kobs/I, KLK6; format: biochemical, human; settings: KLK6 1.5 nM, fluorogenic substrate 22 5 µM, 50 mM Tris 150 mM NaCl 1 mM EDTA 0.05% Tween20 pH 7.5, room temperature, read every 30 s for 30 min, ex/em 380/440 nm, pseudo first order kinetics, corrected by (1 + [S]/KM), triplicates
tPA = molecular target: T1, tPA (Homo sapiens, UniProt P00750); experiment: Enzyme kinetics to calculate KM, tPA; format: biochemical; settings: fluorogenic substrate, tPA 2 nM, 2% DMSO, room temperature, 30 min, Michaelis-Menten model, triplicates
T1 construct: purchased BioTechne 7449-SE
T1 sequence (P00750 36-562): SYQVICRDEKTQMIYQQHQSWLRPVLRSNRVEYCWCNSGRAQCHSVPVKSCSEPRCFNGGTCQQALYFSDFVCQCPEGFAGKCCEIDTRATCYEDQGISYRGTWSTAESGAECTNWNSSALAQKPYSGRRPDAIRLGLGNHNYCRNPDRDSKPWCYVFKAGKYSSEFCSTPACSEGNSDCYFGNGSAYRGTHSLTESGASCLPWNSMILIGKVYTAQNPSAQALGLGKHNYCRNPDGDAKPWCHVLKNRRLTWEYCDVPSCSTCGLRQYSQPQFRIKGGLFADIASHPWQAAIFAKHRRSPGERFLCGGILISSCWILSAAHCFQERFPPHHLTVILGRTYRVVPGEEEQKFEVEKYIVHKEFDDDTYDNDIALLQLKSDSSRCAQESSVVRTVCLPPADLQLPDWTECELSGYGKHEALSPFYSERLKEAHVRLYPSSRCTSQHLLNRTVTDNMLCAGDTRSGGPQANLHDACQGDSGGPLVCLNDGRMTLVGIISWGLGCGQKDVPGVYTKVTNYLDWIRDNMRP
Procedure: as §1, §2
The manufacturer’s recommended buffers were used with uPA and tPA but not KLK8. […]
(§8) Fluorescence measurements were measured using an Envision plate reader. Fluorescence data was processed using Graphpad Prism 8. […]
as §3
380nm/440nm. The data was analysed using Graphpad Prism 8. The initial slopes of each plot were calculated and presented in a bar chart, which represents the substrate specificity of the KLK. Error bars represent the standard deviation between the three replicates.
as §5, §6, §7
using a pseudo first order kinetics model. The observed rate of inhibition (kobs) was calculated by plotting a one-phase association. […]

uPA = molecular target: T2, uPA (Homo sapiens, UniProt P00749); experiment: Enzyme kinetics to calculate KM, uPA; format: biochemical; settings: fluorogenic substrate, uPA 2 nM, 2% DMSO, room temperature, 30 min, Michaelis-Menten model, triplicates
T2 construct: purchased BioTechne 1310-SE
Procedure: Reagents were obtained from VWR, Sigma Aldrich, Sartorius, Fluorochem, AGTC, Novabiochem, TCI, Alfa Aesar, Iris Biotech, Thermofisher and Bachem. 1H and 13C NMR spectra were measured on 400 MHz Bruker AV instruments. Cells were obtained directly from the ATCC. A Waters LC-MS system (2767 sample manager, 2998 UV detector and 3100 mass detector) was used for the analysis and purification of peptides. The analytical column was an Xbridge C18 4.6 mm x 100 mm. The preparative column used to purify the peptides was an Xbridge C18 19 mm x 100 mm. For analytical LC-MS, the flow rate was 1.2 mL/min, while preparative runs were at 20 mL/min. […]
All solvents contained an additive (0.1% formic acid). High resolution mass was recorded on a Micromass Autospec Premier through the Imperial College London mass spectrometry services. […]
as §8
Peptides were prepared using standard fluorenylmethoxycarbonyl (Fmoc) solid phase peptide synthesis. Reactions were monitored using the ninhydrin test. […]
as §4, §5

KLK8 = molecular target: T3, KLK8 (Homo sapiens, UniProt O60259); experiment: Enzyme kinetics to calculate kobs/I, KLK8; format: biochemical; settings: KLK8 1 nM, Boc-VPR-AMC 30 µM, 100 mM Na2PO4 0.01% Tween20 pH 8.5, room temperature, 30 min, pseudo first order kinetics, triplicates
T3 construct: Active recombinant FGFBP1 (Code 1593-FB), HSPG2 (Code 2364-ER), uPA (Code 1310-SE), tPA (Code 7449-SE) and KLK8 (Code 2025-SE) were obtained from BioTechne; purchased BioTechne 2025-SE
T3 sequence (O60259 33-260): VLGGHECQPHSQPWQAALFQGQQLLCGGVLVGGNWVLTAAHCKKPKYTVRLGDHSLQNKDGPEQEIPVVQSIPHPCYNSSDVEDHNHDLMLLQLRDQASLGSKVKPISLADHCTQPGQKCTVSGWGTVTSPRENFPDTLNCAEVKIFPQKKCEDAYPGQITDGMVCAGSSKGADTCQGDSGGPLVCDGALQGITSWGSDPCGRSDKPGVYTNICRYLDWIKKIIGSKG

Capan-2 cells [3] = settings: 0.13 to 2 μM, Incucyte live cell imaging every 4 h for 5 days, serum-free DMEM
Procedure: Incucyte assays for proliferation and toxicity
Proliferation was quantified using the Incucyte software by measuring percentage confluency. Sytox
green was used as a marker for cell death. Cell death was quantified by measuring total green
fluorescence of each well.
Incucyte (proliferation and toxicity) assays. Capan-2 cells were seeded in a sterile 96 well plate
(10,000 cells per well). The outermost wells were left empty to mitigate edge effects. Cells were grown
in growth media (10% FBS) overnight to adhere. The next day, the media was replaced with serum-free
DMEM (117 µL) containing Sytox green (250 nM) or a DMSO control.

endogenous active KLK6 = settings: Capan-2 conditioned media, streptavidin pulldown, KLK6 western blot
Procedure: Conditioned media was incubated with bABP 17 (10 μM) or DMSO for 2 h, and labeled proteins enriched on magnetic streptavidin-loaded beads, eluted, and analyzed by western blot against a KLK6 antibody.
Cell culture. Cells were cultured in their recommended culture media supplemented with 10% (v/v)
foetal bovine serum at 37 °C and 5% CO2.
Preparation of conditioned media. Cells were grown in standard growth media to 80% confluency in
a T175 flask. The medium was removed, and the cells were washed with serum-free, phenol-red free
RPMI. The cells were incubated with the same RPMI for 2 h. The medium was replaced once again
with serum-free, phenol-red free RPMI and the cells were incubated for 48 h. The condition medium
was collected and filtered through a 0.2 µm syringe filter. The medium was concentrated (25 mL to
0.75 mL) using a 3 kDa Mw cutoff spin filter to a final concentration of around 1 mg/mL. The protein
concentration was measured using a BioRad DCTM protein assay.
Pulldown experiments (western blot). Conditioned media was diluted with PBS to exactly 1 mg/mL.
200 µg of total protein was used per condition. The ABP or DMSO was added at a 1:100 dilution and
the samples were shaken at RT for 1 h. The proteins were precipitated using the MeOH/H2O/CHCl3
method. The pellet was washed twice with MeOH and dried in air for 5 min. The protein was
resuspended in 2% SDS in PBS to a concentration of 10 mg/mL. PBS was added to gradually dilute
the protein back to 1 mg/mL and the samples were centrifuged (17,000 g, 5 min). 5 µg of protein was
set aside as the “before pulldown” samples. Magnetic streptavidin beads were washed three times with
PBS. The rest of the protein was added into the beads and shaken at RT for 2 h. 5 µg of the supernatant
was set aside for analysis, while the rest was discarded. The beads were washed three times with 1%
SDS in PBS. […]
were boiled at 95 °C for 5 min. The proteins were analysed via SDS-PAGE and western blot analysis. […]
10 min, followed by 180 V for 60 min. Gels were then taken for western blot or in-gel fluorescence. […]

Capan-2 cells [4] = settings: Capan-2 cells (active KLK6), 2 μM, 24 h, relative to DMSO
Procedure: (§9) Next, the effect of KLK6 inhibition on migration and invasion of Capan-2 cells was assessed using a Boyden chamber assay.
(§10) (13 µL per condition). Control conditions included puromycin (100 µg/mL), DMSO only, Sytox green only or DMSO + Sytox green. The final inhibitor concentrations ranged from 2 µM to 125 nM. The cells were placed into an Incucyte with the incubator set at 37 °C and 5% CO2. Phase and green fluorescence were analysed every 4 h for 5 days.
(§11) Invasion/migration assays. Cell invasion was measured using Corning Fluoroblok inserts following a modified procedure11. Fluoroblok inserts were placed into the wells of a 24-well plate. Matrigel was suspended to 300 µg/mL in coating buffer (0.01M Tris, 0.7% NaCl, pH 8). The matrigel suspension (100 µL) was added into the Fluoroblok insert and the plate was left at 37 °C for 2 h. A migration control (with no matrigel) was also included. Cells were trypsinised and resuspended in serum-free DMEM.
(§12) The leftover buffer in the chambers was decanted and 500 µL of cells (100,000 per well) were seeded into the apical chamber of the insert. DMEM with 10% FBS (750 µL) was added into the basal chamber as a chemoattractant. The plate was incubated at 37 °C and 5% CO2 for 24 h. The chambers were removed and placed into a new 24-well plate containing 50 µM of CellTracker CMHC dye in HBSS. The cells were stained for 0.5 h and the chamber was removed and placed into the previous plate containing DMEM with 10% FBS. The cells were imaged for blue fluorescence (ex/em = 375/460) using a Celena S inverted fluorescence microscope. Percentage invasion was calculated by quantifying the cell area

BxPC-3 cells = BxPC-3 cells (no active KLK6), 2 μM, 24 h, relative to DMSO
Procedure: as §9, §10, §11, §12

[5] = Fluoroblok insert without Matrigel
[6] = Matrigel-coated Fluoroblok insert

| Substance | KLK6 kobs/I (KLK6 [2]) [M^–1 s^–1] | also measured |
| --- | --- | --- |
| Ac-DPhe-Ser(Z)-Dht-Arg-ACC [compound 23, purified fluorogenic substrate for KLK6] | – | Km (KLK6 [1]): 180 µM |
| Ac-Thr(Z)-Ala-Phg-Arg-ACC [compound 22, purified fluorogenic substrate for KLK6] | – | Km (KLK6 [1]): 86 µM |
| Yn–Asp(Chx)–Cha–His(Z)–Phg(4-guan)PP [compound 4] | 54 | – |
| Yn–DPhe–Ser(Z)–Dht–DArgPP [compound 20] | 0 | – |
| Yn–Thr(Z)–Ala–Dab(Z)–Phg(4-guan)PP [compound 8] | 11 | – |
| Yn–Thr(Z)–Ala–Dht–Phg(4-guan)PP [compound 5] | 250 | – |
| Yn–Thr(Z)–Ala–Phg–Phg(4-guan)PP [compound 1] | 220 | – |
| Yn–Thr(Z)–Ala–Ser(Z)–Phg(4-guan)PP [compound 7] | 43 | – |
| Yn–Thr(Z)–Ala–Tyr(Z)–Phg(4-guan)PP [compound 6] | 7 | – |
| Yn–Thr(Z)–Cha–His(Z)–Phg(4-guan)PP [compound 3] | 46 | – |
| Yn–Thr(Z)–Chg–His(Z)–Phg(4-guan)PP [compound 2] | 30 | – |
| Z-GGR-AMC | – | Km (tPA): 1.2 mM; Km (uPA): 190 µM |
| biotin–Ahx–DPhe–Cha–Dht–ArgPP [compound 16] | 1300 | KLK8 kobs/I (KLK8): 150 M^–1 s^–1 |
| biotin–Ahx–DPhe–Cha–Dht–Phg(4-guanPP [compound 11] | 210 | KLK8 kobs/I (KLK8): 0 M^–1 s^–1 |
| biotin–Ahx–DPhe–Cha–Ser(Ac)–Phg(4-guan)PP [compound 15] | 150 | KLK8 kobs/I (KLK8): 20 M^–1 s^–1 |
| biotin–Ahx–DPhe–DLys–Dht–Phg(4-guan)PP [compound 14] | 550 | KLK8 kobs/I (KLK8): 73 M^–1 s^–1 |
| biotin–Ahx–DPhe–Lys–Dht–Phg(4-guan)PP [compound 13] | 250 | – |
| biotin–Ahx–DPhe–Ser(Z)–Dht–DArgPP [compound 18] | 0 | effect on proliferation (percentage confluency) (Capan-2 cells [3]): no effect; labeling of endogenous KLK6 (endogenous active KLK6): no KLK6 labeling; effect on migration (Capan-2 cells [4]; [5]): no effect; effect on invasion (Capan-2 cells [4]; [6]): no effect; effect on migration (BxPC-3 cells; [5]): no effect; effect on invasion (BxPC-3 cells; [6]): no effect |
| biotin–Ahx–DhPhe–Cha–Dht–Phg(4-guan)PP [compound 12] | 140 | KLK8 kobs/I (KLK8): 0 M^–1 s^–1 |
| biotin–Ahx–Thr(Z)–Ala–Dht–Phg(4-guan)PP [compound 9] | 220 | – |
| biotin–Ahx–Thr(Z)–Cha–Dht–Phg(4-guan)PP [compound 10] | 420 | KLK8 kobs/I (KLK8): 71 M^–1 s^–1 |
